Test results: patent publication US20230150951A1, “2,5- OR 2,6-DISUBSTITUTED HYDROQUINONE DERIVATIVES WITH AT LEAST ONE CARBOXY, SULFO OR AMIDO GROUP USEFUL AS MEDICAMENTS” (OM PHARMA SA, priority 2020, published 2023)

How the values were obtained:
ARPE-19 cells [1] = test: ROS and cytokine/VEGF mRNA production by ARPE-19 monolayer cells in non-diabetic and diabetic milieu; assay type: cell-based, human; conditions: ARPE19 monolayer; for ROS: ROS % to 25 mM D-Glucose; for IL-1β R.Q. mRNA / IL-6 R.Q. mRNA / IL-18 R.Q. mRNA / TNFα R.Q. mRNA / VEGF R.Q. mRNA: relative change vs 25 mM D-Gluc
Experimental: (§1) Outer Blood Retinal Barrier conditions: human retinal pigment epithelial cells (RPE) cultures ARPE-19, a spontaneously immortalised human RPE cell line were obtained from American Type Culture Collection (Manassas, Va., USA). ARPE-19 cells and they were cultured in euglycaemic conditions (D-glucose (D-Glc), 5.5 mmol/L) and hyperglycaemic conditions (D-glucose, 25 mmol/L) for 18 days at 37° C. under 5% (vol./vol.) CO2 in medium (DMEM/F12) supplemented with 10% (vol./vol.) FBS (Hyclone; Thermo Fisher Scientific, UT, USA) and 1% (vol./vol.) penicillin/streptomycin (Hyclone; Thermo Fisher Scientific). ARPE-19 cells from passage 20 were used and the medium changed every 3-4 days. For permeability studies, ARPE-19 cells were seeded at 400,000 cells/ml (80,000 RPE cells/well) in 0.33 cm^2 HTS-Transwells (Costar; Corning, N.Y., USA). For real-time PCR, western blot analysis and immunofluorescence cells are seeded at 20,000 cells/ml.
(§2) Experimental conditions and treatments: apart from the euglycemic condition, eighteen different conditions were tested in cells cultured under 25 mmol/L D-glucose:
• Proinflammatory cytokines were evaluated in ARPE-19 cells by RT-PCR and mRNA for IL-6, TNF-α, IL-1β, IL-18, VEGF, IL-10, FGF were measured using the double delta CT method 2-ΔΔCT with Cts values for the gene of interest and the endogenous human B-actin to obtain ΔCT; mRNA values were expressed as relative change with respect to the condition 25 mM D-Gluc. (ref: Livak K J, Analysis of Relative Gene Expression Data Using Real-Time Quantitative PCR and the 2-ΔΔCT Method, Methods, 2001, 25(4), 402-408, doi 10.1006/meth.2001.1262) • ROS production was evaluated using Cell Biolabs' OxiSelect™ Intracellular ROS Assay (Green Fluorescence) (Bionova, Madrid, Spain). The assay employs the cell-permeable fluorogenic probe 2′, 7′-Dichlorodihydrofluorescin diacetate (DCFH-DA), oxidized to highly fluorescent 2′, 7′-Dichlorodihydrofluorescein (DCF) by cellular ROS. • Endothelin-1, PDGF and VCAM-1 expression was analyzed in HREC monolayers by immunohistochemical analysis and by RT-PCR. • TJ expression (ZO) is analyzed in ARPE-19 and HREC monolayers by immunohistochemical analysis.

ARPE-19 cells [2] = test: Outer blood retinal barrier: ARPE-19 monolayer permeability to FITC-dextran; assay type: cell-based, human; conditions: for p < 0.05 (ARPE19 permeability versus diabetic milieu): IL-β, after 90 min
Source text: The mechanisms of actions involved in the anti-permeability effect of the tested treatments were explored by assessing permeability to fluorescent dextran and proinflammatory cytokines production using their mRNA expression levels by RT-PCR.
as §1, §2
Condition 2) Cells are treated with diabetic milieu 25 mM D-Glucose+vehicle (days 15, 16 and 17 at one application/day) in order to evaluate their effect in preventing the cell damage provoked by the diabetic milieu.
Condition 9) Cells were treated with 25 mM D-Glucose and bevacizumab (0.2 mg/ml) for 72 h (days 15, 16 and 17 at one application/day) to evaluate their potential cytotoxic effects.
Condition 10)=Diabetic milieu; cells were treated with 25 mM D-Glucose+[…] (10 ng/ml)+TNF-α (25 ng/ml)+VEGF (25 ng/ml), for 48 h (days 16 and 17 at one application/day) in order to provoke the disruption of the monolayer.
Condition 17) Cells are treated with diabetic milieu (25 mM D-Glucose+IL-1β (10 ng/ml)+TNF-α (25 ng/ml)+VEGF (25 ng/ml))+bevacizumab (0.2 mg/mL) (days 15, 16 and 17 at one application/day) in order to evaluate their effect in preventing the cell damage provoked by the diabetic milieu.
Measurement of ARPE-19 permeability: The permeability of RPE cells was determined at 18 days by measuring the apical-to basolateral movements of FITC-dextran (40 kDa) (Sigma, St Louis, […]., USA) following a procedure previously reported by Villarroel et al. Exp Eye Res, 2009, 89, 913-920.

COX2 (cycloxygenase-2) = biological target: T1, COX2 (cycloxygenase-2) (Homo sapiens, UniProt P35354); test: Cyclooxygenase enzyme inhibition; assay type: biochemical
T1 sequence (P35354 18-604): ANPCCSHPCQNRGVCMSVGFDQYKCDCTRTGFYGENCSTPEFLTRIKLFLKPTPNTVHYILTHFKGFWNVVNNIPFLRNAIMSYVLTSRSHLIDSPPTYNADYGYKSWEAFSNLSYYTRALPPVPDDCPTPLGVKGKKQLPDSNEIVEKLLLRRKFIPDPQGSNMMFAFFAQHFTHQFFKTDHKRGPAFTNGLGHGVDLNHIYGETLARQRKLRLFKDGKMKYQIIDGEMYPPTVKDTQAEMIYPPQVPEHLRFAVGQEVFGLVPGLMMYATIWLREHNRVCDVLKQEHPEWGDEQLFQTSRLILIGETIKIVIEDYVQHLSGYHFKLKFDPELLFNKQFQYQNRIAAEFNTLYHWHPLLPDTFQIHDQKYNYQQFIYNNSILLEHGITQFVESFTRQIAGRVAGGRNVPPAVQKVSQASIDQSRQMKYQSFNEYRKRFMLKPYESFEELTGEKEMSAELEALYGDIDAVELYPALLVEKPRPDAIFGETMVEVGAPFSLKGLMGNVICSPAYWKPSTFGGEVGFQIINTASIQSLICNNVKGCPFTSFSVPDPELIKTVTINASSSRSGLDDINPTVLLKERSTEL

human primary cells = test: BioMap Plus phenotypic profiling in human primary cell-based systems; conditions: 30, 10, 3.3, 1.1 μM
Experimental: A series of in vitro assays was performed using human primary cell-based assays modeling complex tissue and disease biology of organs (vasculature, immune system, skin, lung) and general tissue biology for phenotypic profiling of compounds in conditions that preserve crosstalk and feedback mechanisms relevant to in vivo outcomes.

[3] = 25 mM D-Gluc, compound 25 μg/mL
[4] = 25 mM D-Gluc, compound 50 μg/mL
[5] = diabetic milieu (25 mM D-Gluc + VEGF, TNF-α, IL-1β), compound 25 μg/mL
[6] = diabetic milieu (25 mM D-Gluc + VEGF, TNF-α, IL-1β), compound 50 μg/mL
[7] = No 3-5: 25 mM D-Gluc + compound 25 μg/mL
[8] = No 6-8: 25 mM D-Gluc + compound 50 μg/mL + VEGF, TNF-α, (so in the source)
[9] = No 11-13: 25 mM D-Gluc + compound 25 μg/mL + VEGF, TNF-α, (diabetic milieu)
[10] = No 11-13: compound 25 μg/mL + VEGF, TNF-α
[11] = No 14-16: 25 mM D-Gluc + compound 50 μg/mL + VEGF, TNF-α, (diabetic milieu)

SMILES | ROS (ARPE-19 cells [1]; [3]) [%] | IL-1β R.Q. mRNA (ARPE-19 cells [1]; [3]) [R.Q.] | IL-6 R.Q. mRNA (ARPE-19 cells [1]; [3]) [R.Q.] | IL-18 R.Q. mRNA (ARPE-19 cells [1]; [3]) [R.Q.] | TNFα R.Q. mRNA (ARPE-19 cells [1]; [3]) [R.Q.] | VEGF R.Q. mRNA (ARPE-19 cells [1]; [3]) [R.Q.] | ROS (ARPE-19 cells [1]; [4]) [%] | IL-1β R.Q. mRNA (ARPE-19 cells [1]; [4]) [R.Q.] | IL-6 R.Q. mRNA (ARPE-19 cells [1]; [4]) [R.Q.] | IL-18 R.Q. mRNA (ARPE-19 cells [1]; [4]) [R.Q.] | TNFα R.Q. mRNA (ARPE-19 cells [1]; [4]) [R.Q.] | VEGF R.Q. mRNA (ARPE-19 cells [1]; [4]) [R.Q.] | ROS (ARPE-19 cells [1]; [5]) [%] | IL-1β R.Q. mRNA (ARPE-19 cells [1]; [5]) [R.Q.] | IL-6 R.Q. mRNA (ARPE-19 cells [1]; [5]) [R.Q.] | IL-18 R.Q. mRNA (ARPE-19 cells [1]; [5]) [R.Q.] | TNFα R.Q. mRNA (ARPE-19 cells [1]; [5]) [R.Q.] | VEGF R.Q. mRNA (ARPE-19 cells [1]; [5]) [R.Q.] | ROS (ARPE-19 cells [1]; [6]) [%] | IL-1β R.Q. mRNA (ARPE-19 cells [1]; [6]) [R.Q.] | other results
O=C(O)c1cc(NC(=O)c2cc(O)cc(C(=O)Nc3ccc(O)c(C(=O)O)c3)c2O)ccc1O [IIc-007a, 5-(3-(3-carboxy-4-hydroxyphenylaminocarbonyl)-2,5-dihydroxybenzamido)-2-hydroxy benzoic acid] | 55 ± 6.4 | 0.74 ± 0.26 | 0.73 ± 0.00 | 0.75 ± 0.09 | 0.57 ± 0.18 | 0.06 ± 0.01 | 72 ± 11 | 0.24 ± 0.11 | 0.34 ± 0.08 | 0.04 ± 0.00 | 0.45 ± 0.30 | 0.12 ± 0.03 | 47 ± 7.6 | 41.03 ± 17.57 | 10.83 ± 6.90 | 0.07 ± 0.01 | 6.31 ± 0.06 | 0.11 ± 0.01 | 74 ± 38 | 11.39 ± 6.52 | IL-6 R.Q. mRNA (ARPE-19 cells [1]; [6]): 1.50 ± 1.19 R.Q.; IL-18 R.Q. mRNA (ARPE-19 cells [1]; [6]): 0.03 ± 0.00 R.Q.; TNFα R.Q. mRNA (ARPE-19 cells [1]; [6]): 4.24 ± 0.77 R.Q.; VEGF R.Q. mRNA (ARPE-19 cells [1]; [6]): 0.13 ± 0.02 R.Q.; % permeability ARPE19 (ARPE-19 cells [2]; [7]): 66.1 ± 4.9%; % permeability ARPE19 (ARPE-19 cells [2]; [8]): 113.1 ± 11.4%; % permeability ARPE19 (ARPE-19 cells [2]; [9]): 114.7 ± 19.0%; p < 0.05 (ARPE19 permeability versus diabetic milieu) (ARPE-19 cells [2]; [10]): * (* p < 0.05 for FITC dextran leakage measured after 90 min in [ng/mL/cm^2] in comparison with diabetic milieu (25 mM D-Gluose + VEGF, TNF-α, IL-β)); % permeability ARPE19 (ARPE-19 cells [2]; [11]): 136.8 ± 13.0%; p < 0.05 (ARPE19 permeability versus diabetic milieu) (ARPE-19 cells [2]; No 14-16: compound 50 μg/mL + VEGF, TNF-α): * (* p < 0.05 for FITC dextran leakage measured after 90 min in [ng/mL/cm^2] in comparison with diabetic milieu (25 mM D-Gluose + VEGF, TNF-α, IL-β)); Inhibition of COX2 (COX2 (cycloxygenase-2)): partially inhibition; Antiproliferative effects on human primary cells (human primary cells): did not have any antiproliferative effects; Cytotoxicity in BioMap Plus (human primary cells): not cytotoxic; Immunomodulatory activities (human primary cells): decreased sIL-10, sIL-2; Inflammation-related activities (human primary cells): decreased sTNFα, MIP-1α; increased IL-8; modulated MCP-1; Number of annotated readouts (human primary cells): 12; Tissue remodeling activities (human primary cells): decreased Collagen I, Collagen IV, Collagen III, PAI-1
O=C(O)c1cc(O)cc(CS(=O)(=O)Cc2cc(O)cc(C(=O)O)c2O)c1O [IVc-059a, 3-((2,5-Dihydroxy-3-carboxyphenyl)methylsulfonylmethyl)-2,5-dihydroxybenzoic acid] | 62 ± 9 | 0.20 ± 0.05 | 0.28 ± 0.11 | 0.07 ± 0.01 | 0.27 ± 0.08 | 0.11 ± 0.01 | 116 ± 12 | 0.21 ± 0.13 | 0.28 ± 0.11 | 0.04 ± 0.01 | 0.27 ± 0.10 | 0.06 ± 0.03 | 61 ± 40 | 20.81 ± 5.11 | 5.84 ± 1.13 | 0.03 ± 0.01 | 5.39 ± 1.01 | 0.04 ± 0.00 | 159 ± 32 | 27.76 ± 5.18 | IL-6 R.Q. mRNA (ARPE-19 cells [1]; [6]): 9.78 ± 2.30 R.Q.; IL-18 R.Q. mRNA (ARPE-19 cells [1]; [6]): 0.01 ± 0.00 R.Q.; TNFα R.Q. mRNA (ARPE-19 cells [1]; [6]): 3.61 ± 1.82 R.Q.; VEGF R.Q. mRNA (ARPE-19 cells [1]; [6]): 0.20 ± 0.03 R.Q.; % permeability ARPE19 (ARPE-19 cells [2]; [7]): 70.2 ± 8.8%; % permeability ARPE19 (ARPE-19 cells [2]; [8]): 112.6 ± 19.8%; % permeability ARPE19 (ARPE-19 cells [2]; [9]): 98.5 ± 36.5%; p < 0.05 (ARPE19 permeability versus diabetic milieu) (ARPE-19 cells [2]; [10]): * (* p < 0.05 for FITC dextran leakage measured after 90 min in [ng/mL/cm^2] in comparison with diabetic milieu (25 mM D-Gluose + VEGF, TNF-α, IL-β)); % permeability ARPE19 (ARPE-19 cells [2]; [11]): 130.4 ± 24.8%; Inhibition of COX2 (COX2 (cycloxygenase-2)): partially inhibition; Antiproliferative effects on human primary cells (human primary cells): antiproliferative to human primary endothelial cells (1.1 μM); Cytotoxicity in BioMap Plus (human primary cells): not cytotoxic; Immunomodulatory activities (human primary cells): decreased sIL-10, sIL-2; Inflammation-related activities (human primary cells): decreased sTNFα; Number of annotated readouts (human primary cells): three
